# Experimental data from the Kinase Knowledgebase extract (Sharma et al. 2016).
# Target: PIK3CA (human) (UniProt P42336)
# Experiment: Assessment of PIK3CA Kinase Activity
# PIK3CA (human), sequence (P42336 whole entry, looked up): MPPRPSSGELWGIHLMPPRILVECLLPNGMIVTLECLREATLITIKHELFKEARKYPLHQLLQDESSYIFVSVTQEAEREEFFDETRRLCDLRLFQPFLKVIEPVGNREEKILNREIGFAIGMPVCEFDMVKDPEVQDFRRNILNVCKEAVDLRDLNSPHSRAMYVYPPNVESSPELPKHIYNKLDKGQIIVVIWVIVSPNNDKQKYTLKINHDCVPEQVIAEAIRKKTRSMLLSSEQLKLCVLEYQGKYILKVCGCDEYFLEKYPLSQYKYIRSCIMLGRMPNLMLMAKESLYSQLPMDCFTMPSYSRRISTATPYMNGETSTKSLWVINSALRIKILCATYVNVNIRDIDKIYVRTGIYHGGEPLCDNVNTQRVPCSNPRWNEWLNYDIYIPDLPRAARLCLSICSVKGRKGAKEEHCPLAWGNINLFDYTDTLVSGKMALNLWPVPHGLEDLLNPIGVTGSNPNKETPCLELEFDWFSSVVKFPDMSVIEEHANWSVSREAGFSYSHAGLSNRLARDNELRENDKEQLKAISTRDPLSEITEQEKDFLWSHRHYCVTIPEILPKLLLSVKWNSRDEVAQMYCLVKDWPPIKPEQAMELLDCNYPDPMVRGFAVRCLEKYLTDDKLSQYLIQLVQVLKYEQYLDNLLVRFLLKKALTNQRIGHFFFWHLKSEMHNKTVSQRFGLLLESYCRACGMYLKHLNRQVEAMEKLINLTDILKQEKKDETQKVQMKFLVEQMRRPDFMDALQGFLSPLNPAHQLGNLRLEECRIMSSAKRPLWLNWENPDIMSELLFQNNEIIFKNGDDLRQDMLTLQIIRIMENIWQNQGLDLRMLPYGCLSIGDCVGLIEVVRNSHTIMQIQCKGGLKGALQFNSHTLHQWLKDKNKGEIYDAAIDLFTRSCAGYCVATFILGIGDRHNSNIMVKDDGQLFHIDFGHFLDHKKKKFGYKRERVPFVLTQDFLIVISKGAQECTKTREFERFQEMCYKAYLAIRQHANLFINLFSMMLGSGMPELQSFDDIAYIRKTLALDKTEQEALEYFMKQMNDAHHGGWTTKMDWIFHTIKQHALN
row,IC50 [nM],Structure (SMILES)
1,27,CO[C@H]1CC[C@H](N(C)c2nn3c(-c4cnc(N)c(C(F)(F)F)c4)cnc3s2)CC1
2,230,CC(C)(C)OC(=O)NC1CCCN(c2nn3c(-c4cnc(N)c(C(F)(F)F)c4)cnc3s2)C1 (centres undefined)
3,50 to 1000,COc1cncc(-c2cnc3sc(NC4CCNCC4)nn23)c1
4,50 to 1000,CCNC(=O)N[C@H]1CC[C@@H](Nc2nn3c(-c4cnc(N)c(C(F)(F)F)c4)c(Cl)nc3s2)CC1
5,50 to 1000,Nc1ccc(-c2cnc3sc(N[C@H]4CC[C@H](O)CC4)nn23)cn1
6,50 to 1000,CC(C)(C)OC(=O)N1CCC2(CCCN(c3nn4c(-c5cnc(N)c(C(F)(F)F)c5)cnc4s3)C2)CC1
7,50 to 1000,CS(=O)(=O)N1CCC2(CC1)CN(c1nn3c(-c4cnc(N)c(C(F)(F)F)c4)cnc3s1)C2
8,50 to 1000,COc1cncc(-c2cnc3sc(NCC4CCN(S(C)(=O)=O)CC4)nn23)c1
9,1 to 50,Nc1ncc(-c2cnc3sc(N[C@H]4CC[C@@H](N)CC4)nn23)cc1C(F)(F)F
10,50 to 1000,CC(C)(C)OC(=O)N1CCC(CNc2nn3c(-c4cnc(N)c(C(F)(F)F)c4)cnc3s2)CC1
11,22,C[C@]1(O)CC[C@@H](Nc2nn3c(-c4cnc(N)c(C(F)(F)F)c4)cnc3s2)CC1
12,23000,CN1CCN(c2ncc(-c3cnc4sc(NC5CCN(S(C)(=O)=O)CC5)nn34)cc2C(F)(F)F)CC1
13,1 to 50,CS(=O)(=O)NCCCNc1nn2c(-c3cnc(N)c(C(F)(F)F)c3)cnc2s1
14,1 to 50,CCNC(=O)N1CCC(CNc2nn3c(-c4cnc(N)c(C(F)(F)F)c4)cnc3s2)CC1
15,50 to 1000,Cc1cncc(-c2cnc3sc(NC4CCN(S(C)(=O)=O)CC4)nn23)c1
16,1 to 50,C[C@]1(O)CC[C@H](Nc2nn3c(-c4cnc(N)c(C(F)(F)F)c4)cnc3s2)CC1
17,17,Nc1ncc(-c2cnc3sc(NC4CC5(CCNCC5)C4)nn23)cc1C(F)(F)F
18,205,CN(c1nn2c(-c3cnc(N)c(C(F)(F)F)c3)cnc2s1)[C@H]1CC[C@](C)(O)CC1
19,34,CS(=O)(=O)N1CC2CN(c3nn4c(-c5cnc(N)c(C(F)(F)F)c5)cnc4s3)CC2C1 (centres undefined)
20,119,CC(C)(C)OC(=O)N1C[C@@H]2CN(c3nn4c(-c5cnc(N)c(C(F)(F)F)c5)cnc4s3)C[C@@H]2C1
21,297,COC(=O)C1CCN(c2nn3c(-c4cnc(N)c(C(F)(F)F)c4)cnc3s2)CC1
22,24,CS(=O)(=O)N1CCC(Nc2nn3c(-c4cnc(N)c(C(F)(F)F)c4)c(Cl)nc3s2)CC1
23,50 to 1000,CN(c1nn2c(-c3cnc(N)c(C(F)(F)F)c3)cnc2s1)[C@H]1CC[C@H](O)CC1
24,50 to 1000,CC(=O)N[C@H]1CC[C@H](Nc2nn3c(-c4cnc(N)c(C(F)(F)F)c4)cnc3s2)CC1

row,IC50 [nM],Structure (SMILES)
1,50 to 1000,COC1CCN(c2nn3c(-c4cnc(N)c(C(F)(F)F)c4)cnc3s2)CC1
2,50 to 1000,CN(c1nn2c(-c3cnc(N)c(C(F)(F)F)c3)cnc2s1)C1CCN(C(=O)OC(C)(C)C)CC1
3,50 to 1000,CC(C)(C)OC(=O)NCC1CCN(c2nn3c(-c4cnc(N)c(C(F)(F)F)c4)cnc3s2)CC1
4,50 to 1000,Nc1ncc(-c2cnc3sc(N4CCCC(N)C4)nn23)cc1C(F)(F)F (centres undefined)
5,12,CC(C)(C)OC(=O)N[C@H]1CC[C@H](Nc2nn3c(-c4cnc(N)c(C(F)(F)F)c4)cnc3s2)CC1
6,14,Nc1ncc(-c2cnc3sc(NC4CCN(S(=O)(=O)C5CNC5)CC4)nn23)cc1C(F)(F)F
7,50 to 1000,Nc1ncc(-c2cnc3sc(N4C[C@H]5CNC[C@H]5C4)nn23)cc1C(F)(F)F
8,102,CS(=O)(=O)NCC1CCCN(c2nn3c(-c4cnc(N)c(C(F)(F)F)c4)cnc3s2)C1 (centres undefined)
9,42,Nc1ncc(-c2cnc3sc(N[C@H]4CC[C@H](N)CC4)nn23)cc1C(F)(F)F
10,109,Nc1ncc(-c2c(Cl)nc3sc(N[C@H]4CC[C@H](N)CC4)nn23)cc1C(F)(F)F
11,1 to 50,Nc1ncc(-c2cnc3sc(NC4CCC(=NOCCF)CC4)nn23)cc1C(F)(F)F (centres undefined)
12,50 to 1000,CCNC(=O)NCCNc1nn2c(-c3cnc(N)c(C(F)(F)F)c3)cnc2s1
13,104,Nc1ncc(-c2c(Cl)nc3sc(N[C@H]4CC[C@H](O)CC4)nn23)cc1C(F)(F)F
14,50 to 1000,COc1cncc(-c2cnc3sc(NC4CCN(C(=O)OC(C)(C)C)CC4)nn23)c1
15,1 to 50,Cc1nc2sc(NC3CCN(S(C)(=O)=O)CC3)nn2c1-c1cnc(N)c(C(F)(F)F)c1
16,50 to 1000,CN(c1nn2c(-c3cnc(N)c(C(F)(F)F)c3)cnc2s1)[C@H]1CC[C@@](C)(O)CC1
17,50 to 1000,Nc1ncc(-c2cnc3sc(N4CCC(C(=O)O)CC4)nn23)cc1C(F)(F)F
18,129,Nc1ncc(-c2cnc3sc(NC[C@H]4CC[C@H](O)CC4)nn23)cc1C(F)(F)F
19,50 to 1000,CN(c1nn2c(-c3cnc(N)c(C(F)(F)F)c3)cnc2s1)C1CCC(=NOCCF)CC1 (centres undefined)
20,50 to 1000,COc1cncc(-c2cnc3sc(NCCCNS(C)(=O)=O)nn23)c1
21,63,CCNC(=O)N[C@H]1CC[C@@H](Nc2nn3c(-c4cnc(N)c(C(F)(F)F)c4)cnc3s2)CC1
22,50 to 1000,Nc1ncc(-c2cnc3sc(NCCN4CCNCC4)nn23)cc1C(F)(F)F
23,94,CS(=O)(=O)N1CCN2CCN(c3nn4c(-c5cnc(N)c(C(F)(F)F)c5)cnc4s3)CC2C1 (centres undefined)
24,50 to 1000,CC(C)(C)OC(=O)NCCCNc1nn2c(-c3cnc(N)c(C(F)(F)F)c3)cnc2s1

row,IC50 [nM],Structure (SMILES)
1,50 to 1000,c1cc(-c2cnc3sc(N4CCOCC4)nn23)c2cn[nH]c2c1
2,213,CNC(=O)C1CCCN(c2nn3c(-c4cnc(N)c(C(F)(F)F)c4)cnc3s2)C1 (centres undefined)
3,50 to 1000,CS(=O)(=O)NC1CCCN(c2nn3c(-c4cnc(N)c(C(F)(F)F)c4)cnc3s2)C1 (centres undefined)
4,1600,CC(C)(C)OC(=O)N1CCC2(CC1)CCN(c1nn3c(-c4cnc(N)c(C(F)(F)F)c4)cnc3s1)CC2
5,50 to 1000,NCC1CCCN(c2nn3c(-c4cnc(N)c(C(F)(F)F)c4)cnc3s2)C1 (centres undefined)
6,50 to 1000,Nc1ncc(-c2cnc3sc(N4CCCC(O)C4)nn23)cc1C(F)(F)F (centres undefined)
7,50 to 1000,CS(=O)(=O)N1CC2(CCCN(c3nn4c(-c5cnc(N)c(C(F)(F)F)c5)cnc4s3)C2)C1
8,1400,CS(=O)(=O)N1CCC(Nc2nn3c(-c4cnc(N5CCNCC5)c(C(F)(F)F)c4)cnc3s2)CC1
9,50 to 1000,Nc1ncc(-c2cnc3sc(N4CCCC(C(=O)O)C4)nn23)cc1C(F)(F)F (centres undefined)
10,18,CC(=O)N1CCC(Nc2nn3c(-c4cnc(N)c(C(F)(F)F)c4)cnc3s2)CC1
11,50 to 1000,NC(=O)C1CCN(c2nn3c(-c4cnc(N)c(C(F)(F)F)c4)cnc3s2)CC1
12,274,CC(=O)NC1CCCN(c2nn3c(-c4cnc(N)c(C(F)(F)F)c4)cnc3s2)C1 (centres undefined)
13,50 to 1000,Nc1ncc(-c2cnc3sc(N4CCCC5(CCNCC5)C4)nn23)cc1C(F)(F)F
14,67,Nc1ncc(-c2cnc3sc(NC4CCNCC4)nn23)cc1C(F)(F)F
15,1700,Nc1ncc(-c2c(Cl)nc3sc(N[C@H]4CC[C@H](NS(=O)(=O)c5ccc(F)cc5F)CC4)nn23)cc1C(F)(F)F
16,1 to 50,CCNC(=O)N[C@H]1CC[C@H](Nc2nn3c(-c4cnc(N)c(C(F)(F)F)c4)c(Cl)nc3s2)CC1
17,50 to 1000,CC(C)(C)OC(=O)NCCNc1nn2c(-c3cnc(N)c(C(F)(F)F)c3)cnc2s1
18,77,Nc1ncc(-c2cnc3sc(N[C@H]4CC[C@@H](O)CC4)nn23)cc1C(F)(F)F
19,50 to 1000,CC(C)(C)OC(=O)N1CCN(c2nn3c(-c4cnc(N)c(C(F)(F)F)c4)cnc3s2)CC1
20,50 to 1000,CS(=O)(=O)NC1CCN(c2nn3c(-c4cnc(N)c(C(F)(F)F)c4)cnc3s2)C1 (centres undefined)
21,50 to 1000,Nc1ncc(-c2cnc3sc(N[C@H]4CC[C@H](NS(=O)(=O)c5ccc(F)cc5F)CC4)nn23)cc1C(F)(F)F
22,50 to 1000,CS(=O)(=O)N1CCC(Nc2nn3c(-c4cncc(C#N)c4)cnc3s2)CC1
23,62,CN(c1nn2c(-c3cnc(N)c(C(F)(F)F)c3)cnc2s1)C1CCN(S(C)(=O)=O)CC1
24,86,CC(C)(C)OC(=O)N1CCN(CCNc2nn3c(-c4cnc(N)c(C(F)(F)F)c4)cnc3s2)CC1

row,IC50 [nM],Structure (SMILES)
1,50 to 1000,COc1cncc(-c2cnc3sc(NC4CCN(S(C)(=O)=O)CC4)nn23)c1
2,301,CN1CCC(CNc2nn3c(-c4cnc(N)c(C(F)(F)F)c4)cnc3s2)CC1
3,50 to 1000,CCOC(=O)C1CCCN(c2nn3c(-c4cnc(N)c(C(F)(F)F)c4)cnc3s2)C1 (centres undefined)
4,179,Nc1ncc(-c2cnc3sc(N4CCCC(CO)C4)nn23)cc1C(F)(F)F (centres undefined)
5,1 to 50,CS(=O)(=O)N1CCC(N(CCN2CCCC2)c2nn3c(-c4cnc(N)c(C(F)(F)F)c4)cnc3s2)CC1
6,162,CS(=O)(=O)NC1CCN(c2nn3c(-c4cnc(N)c(C(F)(F)F)c4)cnc3s2)CC1
7,131,CC(C)(C)OC(=O)N1CC(S(=O)(=O)N2CCC(Nc3nn4c(-c5cnc(N)c(C(F)(F)F)c5)cnc4s3)CC2)C1
8,50 to 1000,CC(=O)N[C@H]1CC[C@@H](Nc2nn3c(-c4cnc(N)c(C(F)(F)F)c4)cnc3s2)CC1
9,12,CS(=O)(=O)N1CCC(Nc2nn3c(-c4cnc(N)c(C(F)(F)F)c4)cnc3s2)CC1
10,34,Nc1ncc(-c2cnc3sc(NC4CCC5(CC4)OCCO5)nn23)cc1C(F)(F)F
11,262,CN1CCN(C(=O)NCCNc2nn3c(-c4cnc(N)c(C(F)(F)F)c4)cnc3s2)CC1
12,50 to 1000,CCNC(=O)N1CCC(N(C)c2nn3c(-c4cnc(N)c(C(F)(F)F)c4)cnc3s2)CC1
13,50 to 1000,CS(=O)(=O)N1CCN(c2nn3c(-c4cnc(N)c(C(F)(F)F)c4)cnc3s2)CC1
14,1000,Nc1ncc(-c2cnc3sc(N4CCC(N)C4)nn23)cc1C(F)(F)F (centres undefined)
15,85,Nc1ncc(-c2cnc3sc(N4CCN5CCNCC5C4)nn23)cc1C(F)(F)F (centres undefined)
16,50 to 1000,CC(C)(C)OC(=O)N[C@H]1CC[C@@H](Nc2nn3c(-c4cnc(N)c(C(F)(F)F)c4)cnc3s2)CC1
17,50 to 1000,CC(=O)O[C@H]1CC[C@H](Nc2nn3c(-c4cnc(N)c(C(F)(F)F)c4)c(Cl)nc3s2)CC1
18,50 to 1000,CC(C)(C)OC(=O)N1CCC2(CC1)CC(Nc1nn3c(-c4cnc(N)c(C(F)(F)F)c4)cnc3s1)C2
19,170,Nc1ncc(-c2cnc3sc(N4CCCNC4=O)nn23)cc1C(F)(F)F
20,50 to 1000,NCCCNc1nn2c(-c3cnc(N)c(C(F)(F)F)c3)cnc2s1
21,177,CC(C)(C)OC(=O)NC1CCN(c2nn3c(-c4cnc(N)c(C(F)(F)F)c4)cnc3s2)C1 (centres undefined)

row,Structure (SMILES),IC50 [nM]
1,CN(c1nn2c(-c3cnc(N)c(C(F)(F)F)c3)cnc2s1)C1CCNCC1,50 to 1000
